The numbers were not newly measured in PMC3313018 (Cancer Chemotherapy and Pharmacology, 2011), which cites them from elsewhere.

Molecules are shown by their SMILES.

The test system of the series is patients with advanced renal cell carcinoma. Particulars: cited from earlier work.

Consider `CO[C@H]1C[C@@H]2CC[C@@H](C)[C@@](O)(O2)C(=O)C(=O)N2CCCC[C@H]2C(=O)O[C@H]([C@H](C)C[C@@H]2CC[C@@H](OCCO)[C@H](OC)C2)CC(=O)[C@H](C)/C=C(\C)[C@@H](O)[C@@H](OC)C(=O)[C@H](C)C[C@H](C)/C=C/C=C/C=C/1C` [everolimus], for which, where the note is “Japanese patients with advanced renal cell carcinoma ref 18”, the Incidence of pneumonitis is reported as 27%. For the same compound, the “Incidence of pneumonitis, overall rate” value (patients with renal cell carcinoma overall ref 18) was 11%.
